# Results: patent US8759324B2 (priority 2006, dated 2014)
# Where two headings read alike, the source gives them in different places.
# Legend:
# [1] = in vivo, iv; cited from earlier work
# [2] = Precipitation of anionic porphyrins at acidic pH; assay type: physicochemical; details: pH 5.5, ~50% of carboxylate groups protonated
# [3] = when carboxylates are protonated; cited from earlier work
# [4] = Electrochemistry: metal-centered redox potential (voltammetry); assay type: physicochemical; details: for E1/2 (H2O)M^IIIP/(H2O)M^IIP: 0.1M NaCl and 0.01 M HCl, errors ±3 mV
# Procedure: The electrochemistry was done as previously described on CH Instruments 600 Voltammetric Analyzer. The metal-centered redox potentials of aquametalloporhyrins were measured in 0.1 M NaCl and 0.01 M HCl. […] Thus, their voltammograms were obtained in 0.1 M NaCl, 0.1 M 1-methylimidazole, 0.05 M phosphate buffer, pH 7.8. Scan rates were 0.1 V/s. The potentials were standardized against MnTE-2-PyP^5+ and are given in Table 1, in mV versus normal hydrogen electrode, NHE [42].
# [5] = cited from earlier work
# [6] = Stability of metalloporphyrins to oxidative degradation (bleaching), spectrophotometric; details: for remaining fraction of metalloporphyrin: after 6 hours, in the presence of cyclophosphamide, pH 7.4, 10 μM porphyrin; for remaining fraction of metalloporphyrin / stability to oxidative degradation / bleaching (in words): aerobic; for stability to oxidative degradation / bleaching (in words): pH 7.4, ascorbic acid
# [7] = cited from earlier work; remark: listed apart in the source
# [8] = pH 7.4; for remaining fraction of metalloporphyrin: buffer, 6 h
# [9] = 0.1 M NaCl, 0.1 M 1-methylimidazole, 0.05 M phosphate buffer, pH 7.8, scan rate 0.1 V/s
# [10] = footnote b: ref 42, pH 7.8, 0.05 M phosphate buffer, 0.1M NaCl, 0.5 mM porphyrin
# [11] = footnote a: estimated from existing potentials of difluoro- and dichloro analogues [42] and those obtained herein
molecule,measurement,setting,value
"O=P1(N(CCCl)CCCl)NCCCO1 (stereo not drawn) [CP, cyclophosphamide]",CP hydroxylated to 4-OHCP in plasma,[1],around 2.4%
same,peak CP levels in plasma,[1],27.58 μg/mL μM
Fe(III) meso tetrakis(4-carboxylatophenyl)porphyrin [FeTBAP^3−],precipitation at pH 5.5,[2],precipitate out of the solutions
same,precipitation under acidic conditions,[3],precipitate under acidic conditions
same,E1/2 (1-MeIm)2M^IIIP/(1-MeIm)2M^IIP,[4]; [9],+22 ^ mV vs NHE
same,pKa of carboxylate groups,[5],~5
same,remaining fraction of metalloporphyrin,[6]; 2 mM ascorbic acid,24%
same,stability to oxidative degradation / bleaching (in words),[6],more prone to destruction
"C[n+]1ccccc1-c1c2nc(c(-c3cccc[n+]3C)c3ccc([n-]3)c(-c3cccc[n+]3C)c3nc(c(-c4cccc[n+]4C)c4ccc1[n-]4)C=C3)C=C2.[Mn+3] [MnTM-2-PyP^5+, Mn(III) tetrakis(N-methylpyridinium-2-yl)porphyrin]",E1/2 (OH)M^IIIP/(H2O)M^IIP,[7]; [10],+128^b mV vs NHE
same,remaining fraction of metalloporphyrin,[6]; 2 mM ascorbic acid,91%
"Fe(III) meso tetrakis(2,6-difluoro-3-sulfonatophenyl)porphyrin [FeT(2,6-F2-3-SO3P)P^3−]",remaining fraction of metalloporphyrin,[8],19%
same,stability to oxidative degradation / bleaching (in words),[8],least stable
same,E1/2 (H2O)M^IIIP/(H2O)M^IIP,[4]; scan rate 0.1 V/s,+124^ mV vs NHE
same,E1/2 (1-MeIm)2M^IIIP/(1-MeIm)2M^IIP,[4]; [11],+114^a mV vs NHE
same,E1/2 (OH)M^IIIP/(H2O)M^IIP,[4]; [11],+74^a mV vs NHE
same,4-OHCP produced,pH 5.5,46.11 µM
same,cyclophosphamide hydroxylated relative to 10 μM porphyrin,pH 5.5,~5 fold
same,4-OHCP formed,pH 7.4,15.62 µM
"C[n+]1ccccc1-c1c2nc(c(-c3cccc[n+]3C)c3ccc([n-]3)c(-c3cccc[n+]3C)c3nc(c(-c4cccc[n+]4C)c4ccc1[n-]4)C=C3)C=C2.[Fe+3] [FeTM-2-PyP^5+, Fe(III) tetrakis(N-methylpyridinium-2-yl)porphyrin]",E1/2 (1-MeIm)2M^IIIP/(1-MeIm)2M^IIP,[7]; [10],+432^b mV vs NHE
same,E1/2 (H2O)M^IIIP/(H2O)M^IIP,[7]; [10],+355^b mV vs NHE
same,E1/2 (OH)M^IIIP/(H2O)M^IIP,[7]; [10],+212^b mV vs NHE
same,change of absorbance at 417.5 nm (porphyrin degradation),"[6]; 9 μM porphyrin, 2 mM ascorbic acid, +/−50 μM H2O2, +/−50 mM mannitol, PBS pH 7.4, 25° C., data not shown",decreased slowly
same,remaining fraction of metalloporphyrin,[6]; 2 mM ascorbic acid,41%
"C=CC1=C(C)c2cc3[n-]c(cc4[n-]c(cc5nc(cc1n2)C(C)=C5C=C)c(C)c4CCC(=O)O)c(CCC(=O)O)c3C.[Cl-].[Fe+3] [FePP-IX^−, Fe(III) protoporphyrin IX]",precipitation at pH 5.5,[2],precipitate out of the solutions
same,precipitation under acidic conditions,[3],precipitate under acidic conditions
same,E1/2 (1-MeIm)2M^IIIP/(1-MeIm)2M^IIP,[4]; [9],112 mV vs NHE
same,pKa of carboxylate groups,[5],~5
same,remaining fraction of metalloporphyrin,[6]; 2 mM ascorbic acid,71%
same,stability to oxidative degradation / bleaching (in words),[6],very resistant to bleaching
"Fe(III) meso tetrakis(2,6-dichloro-3-sulfonatophenyl)porphyrin [FeT(2,6-Cl2-3-SO3P)P^3−]",remaining fraction of metalloporphyrin,[8],23%
same,stability to oxidative degradation / bleaching (in words),[8],least stable
same,E1/2 (1-MeIm)2M^IIIP/(1-MeIm)2M^IIP,[7]; [10],+134^b mV vs NHE
same,E1/2 (OH)M^IIIP/(H2O)M^IIP,[7]; [10],+94^b mV vs NHE
same,E1/2 (H2O)M^IIIP/(H2O)M^IIP,[4]; scan rate 0.1 V/s,+144^ mV vs NHE
"C[n+]1cccc(-c2c3nc(c(-c4ccc[n+](C)c4)c4ccc([n-]4)c(-c4ccc[n+](C)c4)c4nc(c(-c5ccc[n+](C)c5)c5ccc2[n-]5)C=C4)C=C3)c1.[Mn+3] [MnTM-3-PyP^5+, Mn(III) tetrakis(N-methylpyridinium-3-yl)porphyrin]",E1/2 (OH)M^IIIP/(H2O)M^IIP,"[7]; footnote c: ref 62, pH 11 where only 33% of (OH)MnTM-3-PyP^4+ exists",+42^c mV vs NHE
same,remaining fraction of metalloporphyrin,[6]; 2 mM ascorbic acid,94%
